Laboratory results from PubChem BioAssay AID256 (DTP/NCI, 2004).
Inconclusive results and toxic doses are left out.

System: CD2F1 mice, L1210 leukemia ip, survival T/C
Assay: NCI In Vivo Anticancer Drug Screen. Data for tumor model L1210 Leukemia (intraperitoneal) in CD2F1 (CDF1) mice
Conditions: higher = longer survival
In short: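 Antitumor effect is scored in animals hosting a serially transplanted tumor. Values compare compound-dosed animals against vehicle-only controls as a simple quotient.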

[1] = endpoint: mean survival time, dose: 100.0 mg/kg/injection, schedule: Q01DX001 (ip), vehicle: saline
[2] = endpoint: mean survival time, dose: 200.0 mg/kg/injection, schedule: Q01DX001 (ip), vehicle: saline
[3] = endpoint: mean survival time, dose: 400.0 mg/kg/injection, schedule: Q01DX001 (ip), vehicle: saline
[4] = endpoint: mean survival time, dose: 100.0 mg/kg/injection, schedule: Q01DX009 (ip), vehicle: saline with Tween-80
[5] = endpoint: mean survival time, dose: 200.0 mg/kg/injection, schedule: Q01DX009 (ip), vehicle: saline with Tween-80
[6] = endpoint: mean survival time, dose: 400.0 mg/kg/injection, schedule: Q01DX009 (ip), vehicle: saline with Tween-80
[7] = endpoint: median survival time, dose: 50.0 mg/kg/injection, schedule: Q01DX005 (ip), vehicle: saline
[8] = endpoint: median survival time, dose: 100.0 mg/kg/injection, schedule: Q01DX005 (ip), vehicle: saline
[9] = endpoint: median survival time, dose: 200.0 mg/kg/injection, schedule: Q01DX005 (ip), vehicle: saline
[10] = endpoint: mean survival time, dose: 100.0 mg/kg/injection, schedule: Q01DX009 (ip), vehicle: saline
[11] = endpoint: mean survival time, dose: 200.0 mg/kg/injection, schedule: Q01DX009 (ip), vehicle: saline
[12] = endpoint: mean survival time, dose: 400.0 mg/kg/injection, schedule: Q01DX009 (ip), vehicle: saline
[13] = endpoint: mean survival time, dose: 100.0 mg/kg/injection, schedule: Q04DX003 (ip), vehicle: saline with Tween-80
[14] = endpoint: mean survival time, dose: 200.0 mg/kg/injection, schedule: Q04DX003 (ip), vehicle: saline with Tween-80
[15] = endpoint: mean survival time, dose: 400.0 mg/kg/injection, schedule: Q04DX003 (ip), vehicle: saline with Tween-80

SMILES: OCC(O)C1OC(OC2CCCCC2)C(O)C(O)C1O (stereo not drawn)
- T/C [1]: 95 % of control
- T/C [2]: 101 % of control
- T/C [3]: 96 % of control

SMILES: C[Si](C)(C)Oc1cccc(O[Si](C)(C)C)c1
- T/C [4]: 92 % of control
- T/C [5]: 94 % of control
- T/C [6]: 87 % of control

SMILES: CN(CN1C(=O)CCC1=O)CN1C(=O)CCC1=O
- T/C [7]: 105 % of control
- T/C [8]: 113 % of control
- T/C [9]: 121 % of control
- T/C (endpoint: median survival time, dose: 400.0 mg/kg/injection, schedule: Q01DX005 (ip), vehicle: saline): 121 % of control

SMILES: Cn1cnc([N+](=O)[O-])c1[Se]c1nc(N)nc2nc[nH]c12
- T/C (endpoint: mean survival time, dose: 3.12 mg/kg/injection, schedule: Q01DX009 (ip), vehicle: water): 111 % of control
- T/C (endpoint: mean survival time, dose: 6.25 mg/kg/injection, schedule: Q01DX009 (ip), vehicle: water): 124 % of control
- T/C (endpoint: mean survival time, dose: 7.3 mg/kg/injection, schedule: Q01DX005 (ip), vehicle: water): 121 % of control
- T/C (endpoint: mean survival time, dose: 25.0 mg/kg/injection, schedule: Q01DX005 (ip), vehicle: water): 153 % of control
- T/C (endpoint: mean survival time, dose: 25.0 mg/kg/injection, schedule: Q01DX009 (ip), vehicle: water): 160 % of control
- T/C (endpoint: mean survival time, dose: 37.5 mg/kg/injection, schedule: Q01DX005 (ip), vehicle: water): 178 % of control
- T/C (endpoint: mean survival time, dose: 50.0 mg/kg/injection, schedule: Q01DX009 (ip), vehicle: water): 151 % of control

SMILES: OC1c2ccccc2-c2ccccc21
- T/C [10]: 88 % of control
- T/C [11]: 88 % of control
- T/C [12]: 87 % of control

SMILES: Nc1ccccc1CO
- T/C [13]: 100 % of control
- T/C [14]: 95 % of control
- T/C [15]: 95 % of control

SMILES: CC(=O)Nc1ccc(Cc2[nH]c(=O)[nH]c(=O)c2Br)cc1[N+](=O)[O-]
- T/C (endpoint: mean survival time, dose: 100.0 mg/kg/injection, schedule: Q01DX001 (ip), vehicle: saline with Tween-80): 95 % of control
- T/C (endpoint: mean survival time, dose: 200.0 mg/kg/injection, schedule: Q01DX001 (ip), vehicle: saline with Tween-80): 91 % of control
- T/C (endpoint: mean survival time, dose: 400.0 mg/kg/injection, schedule: Q01DX001 (ip), vehicle: saline with Tween-80): 89 % of control

SMILES: CCOC(=O)C(Cc1ccc(C)cc1)P(=O)(OCC)OCC (stereo not drawn)
- T/C [1]: 102 % of control
- T/C [2]: 98 % of control
- T/C [3]: 102 % of control

SMILES: O=P(O)(O)OC1OC(n2cnc3c(NCc4ccc(F)cc4)ncnc32)C(O)C1O (stereo not drawn)
- T/C (endpoint: median survival time, dose: 12.5 mg/kg/injection, schedule: Q01DX005 (ip), vehicle: saline): 101 % of control
- T/C (endpoint: median survival time, dose: 25.0 mg/kg/injection, schedule: Q01DX005 (ip), vehicle: saline): 101 % of control
- T/C [7]: 92 % of control
- T/C [8]: 92 % of control
- T/C [9]: 100 % of control

SMILES: CCS(=O)(=O)/C=C(\I)C(C)(C)C
- T/C [4]: 97 % of control
- T/C [13]: 98 % of control
- T/C [5]: 102 % of control
- T/C [14]: 102 % of control
- T/C [6]: 100 % of control
- T/C [15]: 95 % of control

SMILES: C=C(Br)C(=O)O
- T/C [1]: 93 % of control
- T/C [2]: 98 % of control

SMILES: CCCCCCCCCCC(N)C(=O)O (stereo not drawn)
- T/C [10]: 95 % of control
- T/C (endpoint: mean survival time, dose: 100.0 mg/kg/injection, schedule: Q04DX003 (ip), vehicle: saline): 100 % of control
- T/C [11]: 92 % of control
- T/C (endpoint: mean survival time, dose: 200.0 mg/kg/injection, schedule: Q04DX003 (ip), vehicle: saline): 97 % of control
- T/C [12]: 95 % of control
- T/C (endpoint: mean survival time, dose: 400.0 mg/kg/injection, schedule: Q04DX003 (ip), vehicle: saline): 96 % of control
